Measurements taken from patent publication US10702465B2, “Oral care formulation and method for the removal of tartar and plaque from teeth” (priority 2015, dated 2020).
Entries after “also recorded” stand apart in the source; their conditions may differ.

What was measured:
[1] = background statement; cited from earlier work
[2] = Centrifuge studies of colloidal fragmentation of tartar; format: in vivo, human; conditions: each agent alone
Description: Together DMI and chlorine dioxide fragment the insoluble glucan and polypeptide matrix which hold tartar together. […] Not to be held to any specific mechanism of action, it would appear that the primary role of chlorine dioxide is to break polypeptide linkages and protein polyol linkages. But this ability alone is insufficient for tartar fragmentation. The insoluble glucan matrix also appears to provide much of the needed glue to keep the tartar intact. Dimethyl isosorbide appears to enter the cracks within the insoluble glucan structure and splay out the glucan structure which in turn promotes the entry of water to re-hydrate the normally insoluble glucan and destabilize and glucan/biofilm matrix and fragment the tartar structure. Evidence for this rehydration and fragmentation mechanism is provided in the following two studies.
In the first study the subject's teeth were flossed with Reach floss, then flossed with a Waterpik water flosser. After the water flossing the water was removed from the mouth. 3 ml of distilled water was added to the mouth and the teeth were brushed with only water for 2 minutes. After the 2 minutes brushing cycle, the water was expelled into a funnel into a centrifuge tube. The subject's teeth were again flossed with a water flosser and then procedure “A” was followed three more times for a total of four 2 minute brushing cycles. […]

[3] = Tolerability of chlorine dioxide concentrations in use
[4] = 24 hour period, 100% and 50% aqueous concentrations; cited from earlier work
[5] = Tartar removal trials by flossing and brushing, intraoral photographs (Example 5); format: in vivo, human; conditions: with chlorine dioxide
Description: All photographs in this example were taken by a professional oral hygienist using a Schick intraoral digital camera.
In other unsuccessful trials dimethyl isosorbide was mixed with numerous common tartar reducing toothpastes. The following picture is typical the failed result of six months of flossing with Reach® waxed floss and brushing twice per day with these various tartar reducing toothpastes with a Philips Sonicare® toothbrush for two minutes. The DMI concentration in each case was 7.1% (w).
The white spots present in FIGS. 15 and 17 are from enamel erosion from previous years of heavy tartar presence and attack of the enamel by bacteria.
In a separate study, 5% (w) DMI was mixed with 0.0094% (w) chlorine dioxide in of water [94.5% (w)]. After flossing the DMI-chlorine dioxide-water mixture was transferred to the mouth of the subject and the subject brushed the teeth for 2 minutes with Philips Sonicare®. After 6 weeks of flossing and brushing twice per day with the DMI-chlorine dioxide-water mixture, the photograph of FIG. 16 was taken.
After the picture of FIG. 16 was taken the trial formulation was changed from 5% (w) to 15% DMI 0.0085% (w) chlorine dioxide in water [84.9% (w)]. This new formulation was used for 8 weeks with the same flossing and brushing regimen used in the first 6 weeks. […]

[6] = system: Streptococcus mutans; conditions: high concentrations; cited from earlier work

SMILES | removal of tartar from teeth [1] | ability to fragment the tartar matrix [2] | problems in use ([3]; chlorine dioxide at 0.01%) | problems in use ([3]; increased concentrations of chlorine dioxide (above 0.01%)) | dissolution of collected dental tartar [4] | ability to fragment the tartar matrix ([2]; listed as DMI) | removal of preexisting tartar ([5]; DMI levels above 10% (w)) | level of DMI at which no tartar is reported ([5]; light tartar producers) | antibacterial properties [6]
[O][Cl+][O-] [chlorine dioxide] | ineffective in removing tartar | Neither chlorine dioxide nor DMI by themselves show the ability to fragment the tartar matrix; also recorded: Neither chlorine dioxide nor DMI alone show the ability to fragment this matrix | no reported problems | no problems | – | – | – | – | –
CO[C@H]1CO[C@H]2[C@@H]1OC[C@H]2OC [DMIS, dimethylisosorbide] | not effective at removing tartar from subjects' teeth in vivo | – | – | – | slowly dissolved | Neither chlorine dioxide nor DMI by themselves show the ability to fragment the tartar matrix; also recorded: Neither chlorine dioxide nor DMI alone show the ability to fragment this matrix; also recorded: insufficient to allow DMI alone to rehydrate and fragment the tartar matrix | removed fairly rapidly | around 5% (w) or 8% (w) | weak antibacterial at high concentrations
